Source: patent US20250135012A1, “DENDRIMER CONJUGATES OF SMALL MOLECULE BIOLOGICS FOR INTRACELLULAR DELIVERY” (The Johns Hopkins University, priority 2021, published 2025)

How the values were obtained:
[1] = system: CNV area (macrophages, endothelial cells); experiment: In vivo distribution and colocalization, CNV mouse model
Method: For biodistribution studies, 1 μg of Cy5-D-miR126-Cy3 or miR-126-Cy3 on a nucleic acid basis (at concentration of 1 μg/μL) were administered to the animals in accordance to the above steps. Tissues were extracted at set time points (1, 3, 5, 7, 14 days post-treatment).
(§1) At set time points, animals were sacrificed and the enucleated eyes fixed in 4% paraformaldehyde for 1 h. The choroid and retina are then dissected out. Tissues were blocked and permeabilized through 2 h incubation with a solution of 5% normal goat serum, 0.3% Triton X-100, and 1% bovine serum albumin at room temperature under constant agitation. To visualize macrophage, tissues were stained with anti-Iba1 antibody (1:100; FUJIFILM® Wako Chemicals, Osaka, Japan) followed by ALEXA FLUOR® 405-labeled goat anti-rabbit secondary antibody (1:200; Abcam, MA, USA). Blood vessels were stained with FITC-labeled isolectin (GS IB4) (1:100; Life Technologies, Eugene, OR, USA).
(§2) Flat-mounts were created by making four radial incisions on the tissue and mounting the relaxed tissues on coverslips. CNV formation was imaged with confocal 710 microscope (Carl Zeiss, Oberkochen, Germany) for biodistribution, and with an Axiovert phase contrast microscope for area calculation.
To assess uptake and distribution, Cy3 labeled miR-126 and dually labeled Cy5-D-miR126-Cy3 were injected into laser CNV mouse models and choroids were collected at 1, 3, 5, 7, 14 days post-injection. Iba1 staining was used to visualize the intracellular environment of macrophage, and isolectin GS-IB4 was used to stain for both blood vessels and macrophages.

[2] = system: VEGF-A; experiment: Choroid VEGF-A mRNA by PCR, CNV mouse model; type: in vivo; details: day 14
Method: (§3) For PCR, choroids were immersed in TRIzol, homogenized with steel beads, and filtered through Corning COSTAR SPIN-X® centrifuge tube filters (Sigma-Aldrich) to remove tissue solids. The RNA was isolated following the previously described protocol and the RNA concentration was determined through Nanodrop. Equivalent amounts of RNA were converted to complementary DNA (cDNA) and analyzed with Fast SYBR Green reagent through the STEP ONE PCR® system.

[3] = system: IL-1β; experiment: IL-1β mRNA in LPS stimulated BV2 cells (PCR); type: cell-based, murine
Method: (§4) HMEC and BV2 samples were then collected with TRIzol for polymerase chain reaction (PCR) analysis. In brief, samples were subjected to a freeze-thaw cycle with TRIzol followed by the addition of 200 μL of chloroform (Thermo Fisher Scientific). The samples were shaken and placed in ice for 15 min. To aid in the separation of aqueous and organic layers, samples were centrifuged for 15 min at 15,000 g. The aqueous solution was collected and isopropanol was added to each sample (500 μL; Thermo Fisher Scientific). Samples were centrifuged again for 15 min at 15,000 g then washed with 75% ethanol in DEPC-treated water.
(§5) RNA content was determined through Nanodrop and equivalent amount of RNA from each sample were converted to complementary DNA (Applied Biosystems, Foster City, CA). PCR analysis was performed on STEP ONE PLUS® real-time PCR system (Applied Biosystems) with Fast SYBR Green reagent. PCR primers for VEGF-A, GAPDH, and IL-1β were obtained from Bio-Rad Laboratories (Hercules, CA). Primers were purchased from Integrated DNA Technologies (Coralville, IA). Primers for TNFα were: […]

[4] = system: TNFα; experiment: Choroid TNFα mRNA by PCR, CNV mouse model; type: in vivo
Method: as §3

[5] = system: TNFα; experiment: TNFα mRNA in LPS stimulated BV2 cells (PCR); type: cell-based, murine; details: BV2, LPS 100 ng/mL, 24 h, 1-100 nM
Method: as §4, §5

[6] = system: choroidal neovascularization (CNV); experiment: Laser-induced CNV mouse model, CNV area; type: in vivo, C57BL/6J mice
Method: Prior to laser induction of CNV, a cocktail of ketamine/xylazine/acepromazine (100 mg/kg of ketamine, 20 mg/kg of xylazine, and 3 mg/kg of acepromazine) was injected intraperitoneally to anesthetize the animals. Animals were then treated with a drop of topical 2.5% Phyenylephrine Hydrochloride ophthalmic solution followed by 0.5% Tetracaine hydrochloride ophthalmic solution for pupil dilation. A Micron III SLO (Phoenix Research Labs, Pleasanton, CA) was used to image the fundus and focus the attached laser system (Phoenix Research Labs). Four equidistantly placed laser burns in the Bruch's membrane were created with a laser power setting of 240 mW at a duration of 70 ms.
In brief, a 30G insulin syringe was used to create an injection opening in the sclera. A 10 μL Hamilton syringe was then used to administer the treatment directly into the vitreous cavity. After treatment, animals were given topical ocular antibiotic (gentamicin and prednisolone acetate ophthalmic ointment) to prevent infection. Animals were then sacrificed at set time points post treatment (7 and 14 days) for imaging and biochemical analysis.
as §1, §2

[7] = system: VEGF-A; experiment: Choroid VEGF-A protein by ELISA, CNV mouse model; type: in vivo
Method: Eyes were dissected immediately after enucleation without fixation. The choroid was collected and stored at −80° C. prior to analysis. For ELISA analysis, choroids were immersed in T-PER protein extraction buffer (Thermo Fisher Scientific) and homogenized with 0.9-2.0 mm stainless steel beads on a Bullet Blender Storm tissue homogenizer (Next Advantage Inc., Averill Park, NY). The supernatant was centrifuged to collect the aqueous solution. The samples were stored in −80° C. and used without further processing for ELISA detection of VEGF-A levels.

[8] = system: HMECs; experiment: HMEC Matrigel tube formation assay; type: cell-based, human; details: 24 h pretreatment, imaged after 7 h on Matrigel
Method: HMECs were seeded onto 12-well plates at a density of 1×10^5 cells/mL and allowed to grow to confluency. […] After 24 h of treatment, cells were collected by detaching them with trypsin, collecting the resulting cell suspension, and centrifuging at 300 g for 5 min. Tube formation assay was performed according to protocol provided by Lonza.
In brief, on the day of the assay, 96-well plates were coated with 75 μL of phenol-free […]® and left to polymerize at 37° C. for 20 min. The cell pellets were re-suspended with 300 μL of media and 75 μL of the solution (400,000 cells/mL) were seeded onto each […]®-coated wells.

[9] = system: VEGF-A; experiment: VEGF-A mRNA in HMECs (PCR); type: cell-based, human
Method: as §4, §5

[10] = 24 h post-injection (earliest time point)

miR-126: sense 5′-UCGUACCGUGAGUAAUAAUGCG-3′ (SEQ ID NO: 4); antisense 5′-CGCAUUAUUACUCACGGUACGA-[Thiol C6 S—S]-3′ (SEQ ID NO: 5) (3' thiol C6 S-S on antisense; misc_feature 22 3' end linked to Thiol-Modifier C6 S-S)
fraction of Cy3 (miR-126) signal colocalized with Iba1 (macrophages) [1, 10]: around 2% | fraction of signal in combined macrophage/endothelial population (isolectin GS-IB4) [1, 10]: around 3% | time in the CNV target area ([1]; intravitreal, confocal microscopy): up to 7 days | fraction of signal colocalized within macrophages ([1]; peak at 5 days): ~10% | fraction of signal within combined macrophage/endothelial population ([1]; peak at 5 days): ~15% | VEGF-A mRNA levels [2]: still reduced | concentration with the higher/high IL-1β knockdown effect [3]: 10 nM | dose response of IL-1β knockdown ([3]; 1-100 nM): inverse dose response | TNFα mRNA ([4]; 7 days, not statistically significant): elevated | TNFα mRNA ([4]; 14 days): suppressed TNFα | knockdown of TNFα [5]: ~50% | CNV area ([6]; day 7, one intravitreal dose on day of CNV induction): ~8,000 μm^2 | CNV area decrease (significance) ([6]; day 14): insignificant decrease | reduction of CNV area compared to the control ([6]; day 14): ~10% | CNV area ([6]; day 14, one intravitreal dose): ~8,000 μm^2 | VEGF-A protein vs untreated ([7]; day 7): significant decrease | VEGF levels, treated vs untreated animals ([7]; day 14): no differences | network formation [8]: disruption of network formation | doses repressing VEGF-A at the same level as lower doses of D-miR126 [9]: 10 to 100 nM | knockdown of VEGF-A production ([9]; 24 h, full-serum): ~20%
